Measurements: patent US20240174625A1, “COMPOSITIONS AND METHODS FOR TREATING TAUOPATHIES” (The Regents of the University of California, priority 2021, published 2024)

Columns and labels:
NPEPPS = target: T1, NPEPPS (Homo sapiens, UniProt P55786); test: Cell-based NPEPPS activity assay (Q-AMC fluorescence); settings: for EC50: log10 transformed, EC50 = concentration that elevates 50% NPEPPS activity (150% of DMSO baseline), HEK293T cells; for fluorescence change (NPEPPS activity): Q-AMC assay, inhibitors, FIG. 2D
T1 construct: endogenous in cells; host or cells: HEK293T
Experimental: HEK293T cells (AATC) were maintained in a complete media containing DMEM (Gibco 11995-065) in the presence of 10% fetal bovine serum (FBS, Gibco 10082147), […] penicillin and 50 μg/ml streptomycin (Gibco 15140163) at 37° C. with 5% CO2. NPEPPS activity assay was conducted in a fresh-prepared minimal medium containing essential amino acids, vitamin, AlbuMax (Invitrogen 11021-029) in 1×HBS buffer. Black wall, clear bottom 384-well assay plates (Greiner EK-30092) were coated with poly-L-ornithine (0.1 mg/ml, Sigma P3655) overnight and washed once with 1×PBS. 15 μl minimal medium was then added to each well. 250 nL of compounds dissolved in OmniSolve methylsulfoxide (dimethyl sulfoxide, DMSO, Sigma MX1456P) were pinned to each well via Biomek FX^P Liquid Handling Automation (Beckman Coulter) from compound source plates, i.e., either pre-made compound libraries or JMM compounds (20-step, 2-fold dilution) dissolved in OmniSolve DMSO prepared via Biomek automation in 384-well clear V-bottom polypropylene microplates (ThermoScientific 50-823-639). Cells were harvested, resuspended in minimal medium, and seeded at 16,500 cells/15 μl/well in the 384-well assay plates. 24 hrs later, 30 μl 200 μM H-Gln-AMC hydrobromide salt (Q-AMC, Bachem #I-1175) in 1×HBS containing 0.1% DMSO was added into each well. The fluorescent signal at excitation/emission wavelengths of 360/460 nm was measured immediately upon Q-AMC addition and 3 hrs post-Q-AMC. The change in fluorescence is measured as a readout of NPEPPS activity.
To identify small molecules that either increase NPEPPS levels or NPEPPS activity, a cell-based NPEPPS activity assay amenable to high-throughput screening (HTS) by adapting a fluorescent peptidase activity assay^2 was developed. Since NPEPPS is one of the only aminopeptidases capable of cleaving glutamine-peptide bonds^3 and the major aminopeptidase responsible for degradation of poly-glutamine sequences in the brain^4, a fluorogenic compound, glutamine-7-amino-4-methylcoumarin (Q-AMC), was selected as a substrate to measure NPEPPS activity. The peptide bond of Q-AMC is hydrolyzed by NPEPPS to release glutamine and a fluorescent product, 7-amino-4-methylcoumarin (AMC), when Q-AMC is added directly to the cell culture media. This change in fluorescence is measured as a readout of aminopeptidase activity (FIG. 2A). Overexpression of NPEPPS in HEK293T cells results in a significant increase in fluorescence, whereas knock-down or chemical inhibition of NPEPPS decrease fluorescence change (FIG. 2B-D), validating that the changes in fluorescence observed in the Q-AMC-based assay directly correlate with changes in NPEPPS activity. A high-throughput (HTS) screen (201,845 compounds) was conducted at the UCLA MSSR core (FIG. 2E). Follow-up assays and chemical clustering identified three series of compounds with distinct chemical clusters (FIG. 2F).
(§1) To investigate the effects of JMM compounds that enhance NPEPPS activity and assess their cellular toxicity, 139 compounds in the JMM series (i.e., JMM001-JMM139) were tested in dose responses (20-step, 2-fold dilution) using NPEPPS activity and viability assays in HEK293T cells. 76 compounds harboring different modifications produce concentration-dependent enhancement on NPEPPS activity compared to DMSO control (FIG. 4). […] A therapeutic index (TI, a ratio of IC50 over EC50) is used to evaluate the relative safety profiles of the compounds. […] 16 JMM compounds show both improved potency and reduced toxicity (EC50<10 μM and TI>10, Table 1).

HEK293T cells = test: Cell viability assay (CellTiter Glo); assay type: cell-based, human; settings: for IC50: Homo sapiens, HEK-293T, log10 transformed, IC50 = concentration that suppresses 50% cell viability, HEK293T cells; for Therapeutic index: ratio of IC50 (cell viability) over EC50 (NPEPPS activity)
Experimental: HEK293T cells (AATC) were maintained in complete media and cell viability assay was conducted in a fresh-prepared minimal medium containing essential amino acids, vitamin, AlbuMax (Invitrogen 11021-029) in 1×HBS buffer. White 384-well assay plates (Greiner EK-30080) were coated with poly-L-ornithine (0.1 mg/ml) overnight and washed once with 1×PBS. 15 μl minimal medium was then added to each well. 250 nl of compounds dissolved in OmniSolve DMSO were pinned to each well via Biomek FX^P Liquid Handling Automation from compound source plates. Cells were harvested, resuspended in minimal medium, and seeded at 16,500 cells/15 μl/well in the 384-well assay plates. 24 hrs later, 25 μl/well CellTiter Glo reagent (Promega G7572) was added into each well, and luminescence (0.5 second integration time) was acquired following manufacture's protocol. Luminescence count normalized to DMSO control is used as a readout of cell viability.
as §1

T1 sequence (P55786 whole entry): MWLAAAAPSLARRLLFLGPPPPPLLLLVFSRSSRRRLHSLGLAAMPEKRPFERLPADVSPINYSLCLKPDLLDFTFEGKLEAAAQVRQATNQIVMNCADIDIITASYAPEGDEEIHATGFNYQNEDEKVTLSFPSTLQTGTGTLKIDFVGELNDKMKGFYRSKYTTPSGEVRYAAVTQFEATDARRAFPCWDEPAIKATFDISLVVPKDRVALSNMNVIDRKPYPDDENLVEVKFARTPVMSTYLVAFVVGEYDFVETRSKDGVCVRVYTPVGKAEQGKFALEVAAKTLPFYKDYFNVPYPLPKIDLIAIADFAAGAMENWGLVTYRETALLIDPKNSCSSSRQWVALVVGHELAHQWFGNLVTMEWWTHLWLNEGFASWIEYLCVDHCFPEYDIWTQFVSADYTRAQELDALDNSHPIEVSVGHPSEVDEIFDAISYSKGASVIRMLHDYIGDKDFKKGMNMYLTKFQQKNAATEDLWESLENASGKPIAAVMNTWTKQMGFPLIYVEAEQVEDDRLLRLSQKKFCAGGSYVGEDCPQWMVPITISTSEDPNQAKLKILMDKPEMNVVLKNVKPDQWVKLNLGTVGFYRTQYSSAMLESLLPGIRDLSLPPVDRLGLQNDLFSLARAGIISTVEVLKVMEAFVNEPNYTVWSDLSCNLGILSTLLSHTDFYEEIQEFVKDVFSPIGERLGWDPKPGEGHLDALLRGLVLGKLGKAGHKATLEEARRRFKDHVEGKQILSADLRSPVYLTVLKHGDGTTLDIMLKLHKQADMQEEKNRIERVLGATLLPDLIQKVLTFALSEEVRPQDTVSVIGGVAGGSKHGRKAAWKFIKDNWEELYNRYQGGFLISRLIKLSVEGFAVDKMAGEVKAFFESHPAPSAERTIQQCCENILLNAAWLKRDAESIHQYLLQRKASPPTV

Compound: CN(Cc1ccccc1C(F)(F)F)c1nsc2ccccc12 [JMM079]
- EC50 (NPEPPS): 3.55 µM
- IC50 (HEK293T cells): 69.2 µM
- Therapeutic index (HEK293T cells): 19.15

Compound: FC(F)(F)c1ccc(CN(Cc2ccccc2)c2nsc3ccccc23)cc1 [JMM072]
- EC50 (NPEPPS): 13.5 µM
- IC50 (HEK293T cells): 155 µM
- Therapeutic index (HEK293T cells): 11.52

Compound: c1ccc(CNc2nsc3ccccc23)cc1 [JMM009]
- EC50 (NPEPPS): 129 µM
- IC50 (HEK293T cells): 224 µM
- Therapeutic index (HEK293T cells): 1.76

Compound: COc1ccc2snc(N(C)Cc3ccc(OCc4ccccc4)cc3)c2c1 [JMM095]
- EC50 (NPEPPS): 7.76 µM
- IC50 (HEK293T cells): 72.4 µM
- Therapeutic index (HEK293T cells): 9.25

Compound: c1ccc(COc2ccc3snc(NCc4cccs4)c3c2)cc1 [JMM119, 5-(Benzyloxy)-N-(thiophen-2-ylmethyl)benzo[d]isothiazol-3-amine]
- EC50 (NPEPPS): 120 µM
- IC50 (HEK293T cells): 501 µM
- Therapeutic index (HEK293T cells): 4.20

Compound: c1ccc(COc2ccc3snc(NCc4ccc(OCC5CC5)cc4)c3c2)cc1 [JMM135, 5-(Benzyloxy)-N-(4-(cyclopropylmethoxy)benzyl)benzo[d]isothiazol-3-amine]
- EC50 (NPEPPS): 4.17 µM
- IC50 (HEK293T cells): 6.46 µM
- Therapeutic index (HEK293T cells): 1.54

Compound: COc1ccc(CNc2nsc3cccc(OC)c23)cc1OC [JMM026]
- EC50 (NPEPPS): 41.7 µM
- IC50 (HEK293T cells): 129 µM
- Therapeutic index (HEK293T cells): 3.05

Compound: c1ccc(COc2ccc3snc(NCc4ccc(OCc5cccs5)cc4)c3c2)cc1 [JMM132, 5-(Benzyloxy)-N-(4-(thiophen-2-ylmethoxy)benzyl)benzo[d]isothiazol-3-amine]
- EC50 (NPEPPS): 5.13 µM
- IC50 (HEK293T cells): 12 µM
- Therapeutic index (HEK293T cells): 2.36

Compound: c1ccc(CNc2nsc3ccccc23)nc1 [JMM058]
- EC50 (NPEPPS): 105 µM
- IC50 (HEK293T cells): 741 µM
- Therapeutic index (HEK293T cells): 7.17

Compound: Clc1ccc(COc2ccc(CNc3nsc4ccc(OCc5ccccc5)cc34)cc2)cc1 [JMM112, 5-(Benzyloxy)-N-(4-((4-chlorobenzyl)oxy)benzyl)benzo[d]isothiazol-3-amine]
- EC50 (NPEPPS): 5.5 µM
- IC50 (HEK293T cells): 23.4 µM
- Therapeutic index (HEK293T cells): 4.29

Compound: FC(F)(F)c1ccc(COc2ccc(CNc3nsc4ccccc34)cc2)cc1 [JMM031]
- EC50 (NPEPPS): 7.41 µM
- IC50 (HEK293T cells): 77.6 µM
- Therapeutic index (HEK293T cells): 10.38

Compound: FC(F)(F)c1cccc(CNc2nsc3ccccc23)c1 [JMM032]
- EC50 (NPEPPS): 50.1 µM
- IC50 (HEK293T cells): 3090 µM
- Therapeutic index (HEK293T cells): 62.09

Compound: COc1ccc(CCNc2nsc3ccccc23)cc1OC [JMM020]
- EC50 (NPEPPS): 251 µM
- IC50 (HEK293T cells): 120 µM
- Therapeutic index (HEK293T cells): 0.48

Compound: C[C@@H](Nc1nsc2ccccc12)c1cccc2ccccc12 [JMM102]
- EC50 (NPEPPS): 162 µM
- IC50 (HEK293T cells): 417 µM
- Therapeutic index (HEK293T cells): 2.54

Compound: FC(F)(F)Oc1ccccc1CNc1nsc2ccccc12 [JMM055]
- EC50 (NPEPPS): 52.5 µM
- IC50 (HEK293T cells): 126 µM
- Therapeutic index (HEK293T cells): 2.43

Compound: c1cc(CNc2nsc3ccccc23)c2cc[nH]c2c1 [JMM030]
- EC50 (NPEPPS): 219 µM
- IC50 (HEK293T cells): 257 µM
- Therapeutic index (HEK293T cells): 1.16

Compound: FC(F)(F)c1ccc(CNc2nsc3ccc(OCc4ccccc4)cc23)cc1 [JMM066]
- EC50 (NPEPPS): 6.46 µM
- IC50 (HEK293T cells): 174 µM
- Therapeutic index (HEK293T cells): 27.03

Compound: Fc1cccc2c(NC(c3ccccc3)c3ccccc3)nsc12 [JMM057]
- EC50 (NPEPPS): 31.6 µM
- IC50 (HEK293T cells): 151 µM
- Therapeutic index (HEK293T cells): 4.85

Compound: COc1ccc(CNc2nsc3c(F)cccc23)cc1OC [JMM042]
- EC50 (NPEPPS): 5.75 µM
- IC50 (HEK293T cells): 58.9 µM
- Therapeutic index (HEK293T cells): 10.41

Compound: CN(Cc1ccc(C(F)(F)F)cc1)c1nsc2cnccc12 [JMM084]
- EC50 (NPEPPS): 4.57 µM
- IC50 (HEK293T cells): 23.4 µM
- Therapeutic index (HEK293T cells): 5.13

Compound: CC(C)C[C@H](NC(=O)[C@@H](O)[C@H](N)Cc1ccccc1)C(=O)O [bestatin, reference compound]
- fluorescence change (NPEPPS activity) (NPEPPS): decreases in fluorescence change

Compound: COc1ccc(CNc2noc3ccccc23)cc1OC [JMM040]
- EC50 (NPEPPS): 251 µM
- IC50 (HEK293T cells): 251 µM
- Therapeutic index (HEK293T cells): 1.00

Compound: FC(F)(F)c1ccc(CNc2nsc3c(Br)cccc23)cc1 [JMM028]
- EC50 (NPEPPS): 28.8 µM
- IC50 (HEK293T cells): 33.9 µM
- Therapeutic index (HEK293T cells): 1.19

Compound: Brc1ccc(COc2ccc(CNc3nsc4ccc(OCc5ccccc5)cc34)cc2)cc1 [JMM113, 5-(Benzyloxy)-N-(4-((4-bromobenzyl)oxy)benzyl)benzo[d]isothiazol-3-amine]
- EC50 (NPEPPS): 4.47 µM
- IC50 (HEK293T cells): 18.6 µM
- Therapeutic index (HEK293T cells): 4.18

Compound: COc1ccc(CN(C)c2nsc3ccc(OCc4ccccc4)cc23)cc1 [JMM107, 5-(Benzyloxy)-N-(4-methoxybenzyl)-N-methylbenzo[d]isothiazol-3-amine]
- EC50 (NPEPPS): 85.1 µM
- IC50 (HEK293T cells): 87.1 µM
- Therapeutic index (HEK293T cells): 1.04

Compound: c1ccc(C(Nc2nsc3ccccc23)c2ccccc2)cc1 [JMM029]
- EC50 (NPEPPS): 7.08 µM
- IC50 (HEK293T cells): 324 µM
- Therapeutic index (HEK293T cells): 45.28

Compound: FC(F)(F)c1ccc(C(Nc2nsc3ccccc23)c2ccc(C(F)(F)F)cc2)cc1 [JMM051]
- EC50 (NPEPPS): 7.08 µM
- IC50 (HEK293T cells): 14.1 µM
- Therapeutic index (HEK293T cells): 2.03

Compound: Clc1ccc2snc(NCc3ccc(OCc4ccccc4)cc3)c2c1 [JMM129, N-(4-(Benzyloxy)benzyl)-5-chlorobenzo[d]isothiazol-3-amine]
- EC50 (NPEPPS): 27.5 µM
- IC50 (HEK293T cells): 661 µM
- Therapeutic index (HEK293T cells): 24.01

Compound: CN(Cc1ccc(SC(F)(F)F)cc1)c1nsc2ccccc12 [JMM082]
- EC50 (NPEPPS): 2.63 µM
- IC50 (HEK293T cells): 75.9 µM
- Therapeutic index (HEK293T cells): 29.32

Compound: CN(Cc1ccc(OCc2ccc(Cl)cc2)cc1)c1nsc2ccc(OCc3ccccc3)cc12 [JMM108, 5-(Benzyloxy)-N-(4-((4-chlorobenzyl)oxy)benzyl)-N-methylbenzo[d]isothiazol-3-amine]
- EC50 (NPEPPS): 5.62 µM
- IC50 (HEK293T cells): 40.7 µM
- Therapeutic index (HEK293T cells): 7.13

Compound: FC(F)(F)c1ccc(CNc2nsc3ccccc23)cc1 [JMM005]
- EC50 (NPEPPS): 34.7 µM
- IC50 (HEK293T cells): 117 µM
- Therapeutic index (HEK293T cells): 3.42

Compound: CN(C)c1ccc(CNc2nsc3ccccc23)cc1 [JMM019]
- EC50 (NPEPPS): 240 µM
- IC50 (HEK293T cells): 195 µM
- Therapeutic index (HEK293T cells): 0.82

Compound: FC(F)(F)c1ccc(COc2ccc3snc(NCc4ccc(OCc5ccccc5)cc4)c3c2)cc1 [JMM131, N-(4-(Benzyloxy)benzyl)-5-((4-(trifluoromethyl)benzyl)oxy)benzo[d]isothiazol-3-amine]
- EC50 (NPEPPS): 61.7 µM
- IC50 (HEK293T cells): 355 µM
- Therapeutic index (HEK293T cells): 5.78

Compound: FC(F)(F)Sc1ccc(CNc2nsc3ccccc23)cc1 [JMM081]
- EC50 (NPEPPS): 6.31 µM
- IC50 (HEK293T cells): 66.1 µM
- Therapeutic index (HEK293T cells): 10.45

Compound: COc1ccc(CNc2nsc3ccccc23)cc1 [JMM003]
- EC50 (NPEPPS): 257 µM
- IC50 (HEK293T cells): 263 µM
- Therapeutic index (HEK293T cells): 1.03

Compound: COc1ccc(C(Nc2nsc3ccccc23)c2ccc(OC)cc2)cc1 [JMM053]
- EC50 (NPEPPS): 10 µM
- IC50 (HEK293T cells): 3390 µM
- Therapeutic index (HEK293T cells): 335.12

Compound: COc1ccc(C[C@H](N)C(=O)N[C@H]2[C@@H](O)[C@H](n3cnc4c(N(C)C)ncnc43)O[C@@H]2CO)cc1 [puromycin, reference compound]
- fluorescence change (NPEPPS activity) (NPEPPS): decreases in fluorescence change
